Laboratory results published in PubChem BioAssay AID504726 (Broad Institute, 2011).
Activity calls are given as the source filed them.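 The calls were made as follows: active = fitted half-maximal concentration for a cytotoxic signal drop no higher than ten times the top valid dose tested; inconclusive = flat curve between -70 and -30 percent, or an unreliable fit; inactive = flat within 30 percent, signal rise, or potency beyond limit.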

Experiment: HeLa cell cytotoxicity, dose response, cytotoxicity control, 24 h, cherry-picked samples (AID 504726);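 also: 0% = DMSO neutral controls and -100% = mitoxantrone positive controls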
Conditions: HeLa viability, CellTiter-Glo ATP luminescence, 24 h; at 35 µM (top of the series)

SMILES | activity change, negative = cytotoxicity
Cc1ccc(CSc2ncnc3onc(C)c23)cc1 | -13.2% (inactive)
C=CCn1c(C)cc(-c2csc(NC(=O)CCc3nc4ccccc4c(=O)[nH]3)n2)c1C | -6.5% (inactive)
O=C(CCCN1C(=O)/C(=C\c2ccco2)SC1=S)Nc1ccc(O)cc1C(=O)O | 4.85% (inactive)
COC(=O)Cn1c(=NC(=O)c2sc3ccccc3c2Cl)sc2cc(S(N)(=O)=O)ccc21 | -2.51% (inactive)
CCCCN(C(=O)C(C)Oc1ccc(Br)cc1)c1c(N)n(CC(C)C)c(=O)[nH]c1=O (stereo unspecified) | 3.21% (inactive)
CCn1c(O)c(N=Nc2cccc(S(=O)(=O)N3CCOCC3)c2)c(=O)n(CC)c1=S | 7.72% (inactive)
CCCC1(C2CCCC2)NC(=O)NC1=O (stereo unspecified) | 0.78% (inactive)
COC(=O)c1cc(N2CCN(C)CC2)nc2ccccc12 | -6.94% (inactive)
COc1ccc(CCNC(=O)CNC(=O)Cn2ccc3ccccc3c2=O)cc1OC | 2.19% (inactive)
CCOC(=O)C1=C(COC(=O)c2ccc([N+](=O)[O-])s2)NC(=O)NC1C (stereo unspecified) | -1% (inactive)
CCCCn1c(=O)[nH]c2nc3cc(N)ccc3nc2c1=O | -9.99% (inactive)
CN(C)/C=N/c1nc2nccc(-c3ccc(Cl)cc3)n2n1 | -3.67% (inactive)
COc1ccc(Cl)cc1C(=O)NNC(=O)c1cc2ccccc2o1 | -3.35% (inactive)
Cc1cc(Cl)ccc1N1C(=O)CC(NNC(=O)c2cccnc2)C1=O (stereo unspecified) | 5.15% (inactive)
C=CCN1C(=O)/C(=c2\sc3nc(=O)c(Cc4ccccc4Cl)nn3c2=O)c2ccccc21 | -9.87% (inactive)
CC(=O)N(C(C)=O)N1C(=O)c2cccc3c(N4CCOCC4)ccc(c23)C1=O | -2.78% (inactive)
C=CCNC(=S)N1CCN(S(=O)(=O)c2ccc(C)cc2)CC1 | -6.85% (inactive)
Fc1ccc(C2=CC(c3ccc(Br)o3)n3ncnc3N2)cc1 (stereo unspecified) | -14.5% (inactive)
CCNC(=O)COC(=O)c1cccc(Br)c1 | -0.098% (inactive)
C=C(C)C(=O)Nc1cccc(C2=NOC3(C2)C[C@@H](C(N)=O)N(C(=O)C2(C)CC2)C3)c1 (stereo partly specified) | 1.25% (inactive)
COc1cccc(C2CC(=O)Nc3cc4c(cc32)CCC4)c1 (stereo unspecified) | 14.6% (inactive)

SMILES | activity change, negative = cytotoxicity
O=S(=O)(O)c1cccc2cccc(Nc3ccccc3)c12 | -4.31% (inactive)
O=C(C1CCCO1)N1CCN(c2ncccn2)CC1 (stereo unspecified) | -0.396% (inactive)
Cc1c(C#N)c(=O)c(-[n+]2ccccc2)c([S-])n1-c1ccc(Cl)cc1 | -8.57% (inactive)
COc1ccc(NS(=O)(=O)c2cccc3ccccc23)cc1 | -7.48% (inactive)
COC(=O)c1c(C)oc2ccc(N(C(C)=O)S(=O)(=O)c3ccccc3)cc12 | 1.25% (inactive)
Fc1ccc(-c2cc(C(F)(F)F)nc(-n3cc(Cl)cn3)n2)cc1 | -12% (inactive)
COc1ccc(Cn2nnc3c(=O)[nH]c(C4CCCN(C(=O)c5ccccc5)C4)nc32)cc1 (stereo unspecified) | -5.25% (inactive)
COc1ccc(CNC(=O)C2CCC(CNC(=O)[C@@H]3Cc4ccccc4CN3)CC2)cc1 (stereo partly specified) | -2.6% (inactive)
O=C1C(=Cc2ccco2)CCC1=Cc1ccco1 | -6.04% (inactive)
Cc1ccccc1NC(=S)NC(C)CCc1ccccc1 (stereo unspecified) | -9.6% (inactive)
OCCN(CCO)c1nc(N2CCCCC2)c2nc(N(CCO)CCO)nc(N3CCCCC3)c2n1 | -1.48% (inactive)
O=C(CCN1C(=O)/C(=C\c2ccco2)SC1=S)Nc1ccc(C(=O)O)c(O)c1 | 4.66% (inactive)
Cc1sc2nnn(CC(=O)N3CCN(C(=O)c4ccco4)CC3)c(=O)c2c1C | -4.76% (inactive)
O=C1c2cccc3c(O)ccc(c23)C(=O)N1Cc1ccco1 | 8.13% (inactive)
NC1=NC[C@@H](Cc2ccc(O)cc2)N1CCc1cc(C(F)(F)F)cc(C(F)(F)F)c1 | -9.29% (inactive)
CC(C)C(C(=O)O)N1C(=O)/C(=C/C=C/c2ccco2)SC1=S (stereo unspecified) | -14.8% (inactive)
CCN(CC(=O)Nc1c(F)cccc1F)C(=O)CCCc1cccs1 | -23.5% (inactive)
Nc1ccc(C(=O)Nc2ccc3c(O)cc(S(=O)(=O)O)cc3c2)cc1 | -4.38% (inactive)
CCCc1nc(NCc2ccccn2)c2nnn(Cc3ccccc3F)c2n1 | -9.25% (inactive)
Cn1c(=O)c(NCCc2ccccc2)c2c3c(cccc31)C(=O)c1ccccc1-2 | -38.4% (inactive)
O=C(Nc1ccc(Br)cn1)c1cccc2ccccc12 | -12.4% (inactive)

SMILES | activity change, negative = cytotoxicity
Nc1cccc(N2C(=O)c3cccc4c(N)ccc(c34)C2=O)c1 | 6.74% (inactive)
O=C(O)C1Nc2c(O)cc(Cl)c([N+](=O)[O-])c2C2C=CCC12 (stereo unspecified) | -21.5% (inactive)
CCc1noc(C)c1C(=O)NCCc1c[nH]c2ccccc12 | -12.2% (inactive)
Cc1ccc2cccc(OCC(=O)NCCC3=CCCCC3)c2n1 | -6.65% (inactive)
COC(=O)c1cccc(COC(=O)c2ccccc2NC(=O)c2ccco2)c1 | -11.1% (inactive)
C=C1c2cccc(O)c2C(O)=C2C(=O)[C@]3(O)C(O)=C(C(N)=O)C(=O)[C@@H](N(C)C)[C@@H]3[C@@H](O)[C@H]12 | -2.76% (inactive)
S=c1[nH]nc([C@@H]2C[C@H]2c2ccccc2)n1-c1ccccc1Cl | -6.51% (inactive)
C/C(=N/NC(=O)c1cc(O)c(O)c(O)c1)c1ccc([N+](=O)[O-])cc1 | -1.35% (inactive)
CC1CCCN(C(=O)C(=O)c2cn(CC(=O)N3CCCCCC3)c3ccccc23)C1 (stereo unspecified) | -6.83% (inactive)
CCN(CC(=O)Nc1ccc(OC)cc1)C(=O)c1cc([N+](=O)[O-])ccc1N1CCOCC1 | -3.5% (inactive)
COc1cc2c(cc1OC)-c1cc3ccc4c(c3c[n+]1CC2)OCO4 | -12.1% (inactive)
CC(C)(CS(=O)(=O)[O-])NC(=O)CC[N+](C)(C)CCO | 2.35% (inactive)
COc1ccc(C(=O)c2ccsc2N)cc1 | 2.38% (inactive)
O=C(CN1C(=O)/C(=C/c2ccco2)SC1=S)Nc1ccc(C(=O)O)c(O)c1 | -0.625% (inactive)
O=C(O)/C=C/c1ccccc1Oc1ccccc1 | -8.62% (inactive)
COc1ccc(-c2csc(NC(=O)CSc3nc(C)nc4sc(C(=O)O)c(C)c34)n2)cc1 | -1.52% (inactive)
Cc1ccc(C(=O)c2coc3ccc(O)c(Cl)c23)cc1 | -2.67% (inactive)
O=C(c1ccc2c(c1)CCN2S(=O)(=O)c1ccccc1)N1CCN(c2ccc(F)cc2)CC1 | -13.2% (inactive)
Cc1c(C)n(Cc2ccccc2)c2ncnc(Cl)c12 | -17.6% (inactive)
